# Reference: article PMC9555560, “Fast relaxing red and near-IR switchable azobenzenes with chalcogen and halogen substituents: periodic trends, tuneable thermal half-lives and chalcogen bonding” (Chemical Science, 2022)
# Legend:
# [1] = Half-life of the Z → E thermal isomerisation (UV-vis absorbance followed over time after irradiation); type: physicochemical; details: for τ 1/2: 298 K
# Experimental: The E → Z photo-isomerisation and half-life for the Z → E thermal isomerisation was evaluated for all derivatives (Fig. 7 and Table 1, see ESI ^† for original data). To our surprise, the half-lives for (Z)-X2,m-Y2 derivatives were in the order of hours to days for X = F and Cl: the effect of the meta group was not as drastic as anticipated. We typically observed a ∼4 fold decrease in half-life by substituting H with OMe, and a further 3-fold drop from OMe to NMe2 for X = F, Cl and SEt. The nature of the ortho-substituent appeared to be the main influence on τ1/2 (F > Cl ≫ SEt). However, these predictable trends observed for the meta-substitution allow for precise tuning of thermal half-lives. The photo-stationary states (PSSs) of these derivatives ranged from 48–77% Z isomer (Table 1).
# All UV-vis spectra were determined in DMSO solution. […]
# Lambert plot) to determine the molar extinction coefficient ε. For each slow relaxing compound, the E isomer sample at 40 µM was irradiated with the appropriate wavelength of light to generate the photo-stationary state, and another spectrum was run. This spectrum was normalised to units of ε and overlaid with the dark (100% E isomer) spectrum. […]
# Photo-irradiation of liquid samples was carried out using Thorlabs high-power mounted LEDs (models […]
# M530L4 (green, 530 nm); in-house custom built set-ups using optical components supplied by Thorlabs, as described in reference 2
# Equation y = y0 + A1*exp(-(x-x0)/t1
# Figure S327. Lifetime plot of (Z)-Br4-NHBoc based on following UV-Vis absorbance over time after irradiation with 625 nm light (rt, DMSO). Data consistent with NMR half-life data.
# Figure S328. Reversible of switching of I4-NHBoc over time after irradiation with 6 60 nm light (rt, DMSO). Dots : raw data, Line: 1st order Exponential Fit […]
# [2] = UV-vis spectra of the E isomers (n → π* absorption maximum); type: physicochemical; details: E isomer, DMSO
# Excerpt: The UV-vis spectra of the (E)-X4 derivatives and (E)-X2,m-Y2 are shown in Fig. 3 (analogous spectra for the Z isomers, and deconvoluted spectra are available in the ESI ^†). […] The n → π* transition maximum, λmax, typically followed the order meta-H > –NMe2 > –OMe and ortho-S > Cl > F. It is clear from these experiments that the four ortho X substituents in the X4 derivatives are essential for achieving the deeply red-shifted tails which allows for red/near-IR triggered photo-isomerisation.
# All UV-vis spectra were determined in DMSO solution. Extinction coefficients were determined by recording a UV-vis spectra for the E isomer at 10, 20, 30, 40 µM in DMSO respectively. The absorbance at the maximum of the π - π* transition of the E‐isomers was plotted against concentration (Beer-Lambert plot) to determine the molar extinction coefficient ε. For each slow relaxing compound, the E isomer sample at 40 µM was irradiated with the appropriate wavelength of light to generate the photo-stationary state, and another spectrum was run. This spectrum was normalised to units of ε and overlaid with the dark (100% E isomer) spectrum.
# [3] = Z → E thermal isomerisation, DMSO
Compound,"τ 1/2 [1, 3]",λ max of n → π* transition [2] [nm],"t1 of exponential fit (lifetime plot of Z isomer) ([1]; after irradiation with 625 nm light, rt, DMSO) [min]","τ1/2 (Z) ([1]; Z → E thermal isomerisation, printed in Fig. 1 / Fig. 8) [min]"
CCOC(=O)c1cc([Se]C)c(/N=N/c2c([Se]C)cc(C(=O)OCC)cc2[Se]C)c([Se]C)c1 [(SeMe)4-ester],0.000694 h,588.8,,
"COc1cc(N=Nc2cc(OC)c(CNC(=O)OC(C)(C)C)cc2F)c(F)cc1CNC(=O)OC(C)(C)C [F2,m-OMe2]",77 h,387.1,,
"CN(C)c1cc(N=Nc2cc(N(C)C)c(CNC(=O)OC(C)(C)C)cc2F)c(F)cc1CNC(=O)OC(C)(C)C [F2,m-(NMe2)2]",16 h,405.5,,
C[Te]c1cccc([Te]C)c1/N=N/c1c([Te]C)cccc1[Te]C [(TeMe)4-H],,518.5,,
"COc1cc(N=Nc2cc(OC)c(CNC(=O)OC(C)(C)C)cc2Cl)c(Cl)cc1CNC(=O)OC(C)(C)C [Cl2,m-OMe2]",18 h,475.0,,
CC(=O)OCc1cc(I)c(/N=N/c2c(I)cc(COC(C)=O)cc2I)c(I)c1 [I4-OAc],2 m,501.3,,
"CC(C)(C)OC(=O)NCc1ccc(/N=N/c2ccc(CNC(=O)OC(C)(C)C)cc2N2CCCC2)c(N2CCCC2)c1 [(N(CH2)4)2,m-H]",,530.2,,
CCOC(=O)c1cc(SCC)c(/N=N/c2c(SCC)cc(C(=O)OCC)cc2SCC)c(SCC)c1 [(SEt)4-ester],0.0144 h,590.0,,
CC(C)(C)OC(=O)NCc1cc(Br)c(N=Nc2c(Br)cc(CNC(=O)OC(C)(C)C)cc2Br)c(Br)c1 [Br4-NHBoc],12 h,465.9,1011 ± 6.62,
CC(C)(C)OC(=O)NCc1cc(Cl)c(N=Nc2c(Cl)cc(CNC(=O)OC(C)(C)C)cc2Cl)c(Cl)c1 [Cl4-NHBoc],160 h,462.6,,
C[Te]c1cccc(F)c1/N=N/c1c(F)cccc1[Te]C [Te2F2-H],,543,,
COc1cc(CNC(=O)OC(C)(C)C)cc(OC)c1/N=N/c1c(OC)cc(CNC(=O)OC(C)(C)C)cc1OC [(OMe)4-NHBoc],197 h,459.8,,
"CCSc1cc(CNC(=O)OC(C)(C)C)c(OC)cc1/N=N/c1cc(OC)c(CNC(=O)OC(C)(C)C)cc1SCC [(SEt)2,m-OMe2]",9 m,464.1,,
C[Se]c1cc(CNC(=O)OC(C)(C)C)cc([Se]C)c1/N=N/c1c([Se]C)cc(CNC(=O)OC(C)(C)C)cc1[Se]C [(SeMe)4-NHBoc],0.00944 h,534.3,,
"CC(C)(C)OC(=O)NCc1ccc(N=Nc2ccc(CNC(=O)OC(C)(C)C)cc2F)c(F)c1 [F2,m-H2]",75 h,452.5,,
C[Se]c1cccc([Se]C)c1/N=N/c1c([Se]C)cccc1[Se]C [(SeMe)4-H],0.0222 h,533.9,,
"CCOP(=O)(OCC)c1ccccc1/N=N/c1ccccc1P(=O)(OCC)OCC [(PO(OEt)2)2,m-H]",,458.2,,

# Other lines, results leading:
"τ 1/2 [1, 3]",λ max of n → π* transition [2] [nm],"t1 of exponential fit (lifetime plot of Z isomer) ([1]; after irradiation with 625 nm light, rt, DMSO) [min]","τ1/2 (Z) ([1]; Z → E thermal isomerisation, printed in Fig. 1 / Fig. 8) [min]",Compound
3 m,500.4,,,CC(C)Sc1cc(CNC(=O)OC(C)(C)C)cc(SC(C)C)c1/N=N/c1c(SC(C)C)cc(CNC(=O)OC(C)(C)C)cc1SC(C)C [(S^iPr)4-NHBoc]
4 h,432.1,,,"CN(C)c1cc(N=Nc2cc(N(C)C)c(CNC(=O)OC(C)(C)C)cc2Cl)c(Cl)cc1CNC(=O)OC(C)(C)C [Cl2,m-(NMe2)2]"
5 m,514.2,,,CSc1cccc(SC)c1/N=N/c1c(SC)cccc1SC [(SMe)4-H]
34 h,471.0,,,"CC(C)(C)OC(=O)NCc1ccc(N=Nc2ccc(CNC(=O)OC(C)(C)C)cc2Cl)c(Cl)c1 [Cl2,m-H2]"
3 m,514.5,,,CCSc1cc(CNC(=O)OC(C)(C)C)cc(SCC)c1/N=N/c1c(SCC)cc(CNC(=O)OC(C)(C)C)cc1SCC [(SEt)4-NHBoc]
5 m,514.3,,5,CC(C)(C)OC(=O)NCc1cc(I)c(N=Nc2c(I)cc(CNC(=O)OC(C)(C)C)cc2I)c(I)c1 [I4-NHBoc]
3 m,514.4,,,[N-]=[N+]=NCc1cc(I)c(/N=N/c2c(I)cc(CN=[N+]=[N-])cc2I)c(I)c1 [I4-N3]
0.00556 h,520.8,,,N#Cc1cc(I)c(/N=N/c2c(I)cc(C#N)cc2I)c(I)c1 [I4-CN]
44 m,431.3,,,"CCSc1cc(CNC(=O)OC(C)(C)C)ccc1/N=N/c1ccc(CNC(=O)OC(C)(C)C)cc1SCC [(SEt)2,m-H2]"
0.0389 h,543.0,,,"CCSc1cc(CNC(=O)OC(C)(C)C)c(N(C)C)cc1/N=N/c1cc(N(C)C)c(CNC(=O)OC(C)(C)C)cc1SCC [(SEt)2,m-(NMe2)2]"
,500.3,,,OCc1cc(I)c(/N=N/c2c(I)cc(CO)cc2I)c(I)c1 [I4-OH]
1.25y,454,,,CC(C)(C)OC(=O)NCc1cc(F)c(N=Nc2c(F)cc(CNC(=O)OC(C)(C)C)cc2F)c(F)c1 [F4-NHBoc]
0.0128 h,519.6,,,CCOC(=O)c1cc(I)c(N=Nc2c(I)cc(C(=O)OCC)cc2I)c(I)c1 [I4-ester]
3 m,511.8,,,O=C1c2ccccc2C(=O)N1Cc1cc(I)c(/N=N/c2c(I)cc(CN3C(=O)c4ccccc4C3=O)cc2I)c(I)c1 [I4-NPhth]
